Laboratory results reported in US8247211B2, “Glycopeptide antibiotics” (American Cyanamid Company, priority 2001, dated 2012).
Converted amounts (≈) assume the structure as drawn.

What was measured:
Experiment in all cases: In vitro antibacterial evaluation: minimum inhibitory concentration (MIC), broth dilution method
Format in all cases: cell-based
Escherichia coli = tested on: Escherichia coli
Procedure: (§1) The minimum inhibitory concentration (MIC), the lowest concentration of the antibiotic which inhibits growth of the test organism, is determined by the broth dilution method using Muller-Hinton II […] (Baltimore Biological Laboratories) following the recommendations of the National Committee for Clinical Laboratory Standards [Methods for dilution antimicrobial susceptibility tests for bacteria that grow aerobically, approved standard M7-A2, National Committee for Clinical Laboratory Standards, Villanova, Pa].
(§2) An inoculum level of 5×10^5 CFU/mL, and a range of antibiotic concentrations (64-0.06 μg/mL) is used. […] The test organisms include a spectrum of Gram-positive bacteria comprised of Staphylococcus sp., Streptococcus sp. and Enterococcus sp. These organisms include recent clinical isolates that are resistant to methicillin, penicillin and/or vancomycin.

Streptococcus sp. = tested on: Streptococcus sp.
Procedure: as §1, §2

Enterococcus sp. = tested on: Enterococcus sp.
Procedure: as §1, §2

Staphylococcus sp. = conditions: broth dilution, 18 hours at 35° C.
Procedure: as §1, §2

CC(c1ccccc1)C1NC(=O)CNC(=O)C(CO)NC(=O)C(C(O)C2CNC(=N)N2C2OC(CO)C(O)C(O)C2O)NC(=O)C(C(O)C2CNC(=N)N2)NC(=O)C(Cc2ccc(OC3OC(CO)C(OC4OC5COC(c6cccc(Cl)c6)OC5C(O)C4O)C(O)C3O)cc2)NC1=O (stereo not drawn) [Example 138, Cyclo[glycyl-β-methylphenylalanyl-O-[4-O-[4,6-O-(3-chlorobenzylidene)hexopyranosyl]-hexopyranosyl]tyrosyl-3-(2-iminoimidazolidin-4-yl)seryl-3-(3-hexopyranosyl-2-iminoimidazolidin-4-yl)serylseryl]]
MIC Escherichia coli (ATCC 25922) (Escherichia coli; strain ATCC 25922): 64 µg/mL (≈ 45.1 µM) | MIC Escherichia coli (GC 4559) (Escherichia coli; strain GC 4559): 64 µg/mL (≈ 45.1 µM) | MIC Escherichi coli (GC 4560) (Escherichia coli; strain GC 4560): 0.5 µg/mL (≈ 0.353 µM) | MIC Streptococcus pneumoniae (ATCC 6301) (Streptococcus sp.; strain ATCC 6301): <0.06 µg/mL | MIC Streptococcus pneumoniae (GC 1894) (Streptococcus sp.; strain GC 1894): <0.06 µg/mL | MIC Streptococcus pyogenes (GC 4563) (Streptococcus sp.; strain GC 4563): 0.25 µg/mL (≈ 0.176 µM) | MIC Streptococcus agalactiae (GC 4564) (Streptococcus sp.; strain GC 4564): 0.12 µg/mL (≈ 0.0846 µM) | MIC Streptococcus pneumoniae (GC 4565) (Streptococcus sp.; strain GC 4565): <0.06 µg/mL | MIC Enterococcus faecalis (ATCC 29212) (Enterococcus sp.; strain ATCC 29212): 4 µg/mL (≈ 2.82 µM) | MIC Enterococcus faecalis (GC 2242) (Enterococcus sp.; strain GC 2242): 4 µg/mL (≈ 2.82 µM) | MIC Enterococcus faecium (GC 2243) (Enterococcus sp.; strain GC 2243): 4 µg/mL (≈ 2.82 µM) | MIC Enterococcus faecalis (GC 2691) (Enterococcus sp.; strain GC 2691): 8 µg/mL (≈ 5.64 µM) | MIC Enterococcus faecalis (GC 3059) (Enterococcus sp.; strain GC 3059): 4 µg/mL (≈ 2.82 µM) | MIC Enterococcus faecalis (GC 4552) (Enterococcus sp.; strain GC 4552): 4 µg/mL (≈ 2.82 µM) | MIC Enterococcus faecalis (GC 4553) (Enterococcus sp.; strain GC 4553): 8 µg/mL (≈ 5.64 µM) | MIC Enterococcus faecalis (GC 4554) (Enterococcus sp.; strain GC 4554): 8 µg/mL (≈ 5.64 µM) | MIC Enterococcus faecium (GC 4556) (Enterococcus sp.; strain GC 4556): 8 µg/mL (≈ 5.64 µM) | MIC Enterococcus faecium (GC 4557) (Enterococcus sp.; strain GC 4557): 2 µg/mL (≈ 1.41 µM) | MIC Enterococcus avium (GC 4558) (Enterococcus sp.; strain GC 4558): 4 µg/mL (≈ 2.82 µM) | MIC Enterococcus faecalis (GC 6189) (Enterococcus sp.; strain GC 6189): 4 µg/mL (≈ 2.82 µM) | MIC Coagulase Negative Staphylococcus (GC 4547) (Staphylococcus sp.; 5×10^5 CFU/mL): 4 µg/mL (≈ 2.82 µM) | MIC Coagulase Negative Staphylococcus (GC 4548) (Staphylococcus sp.; 5×10^5 CFU/mL): 1 µg/mL (≈ 0.705 µM) | MIC Coagulase Negative Staphylococcus (GC 4549) (Staphylococcus sp.; 5×10^5 CFU/mL): 1 µg/mL (≈ 0.705 µM) | MIC Coagulase Negative Staphylococcus (GC 4551) (Staphylococcus sp.; 5×10^5 CFU/mL): 2 µg/mL (≈ 1.41 µM) | MIC Coagulase Negative Staphylococcus (GC 6257) (Staphylococcus sp.; 5×10^5 CFU/mL): 2 µg/mL (≈ 1.41 µM) | MIC Staphylococcus aureus (ATCC 29213) (Staphylococcus sp.; 5×10^5 CFU/mL): 2 µg/mL (≈ 1.41 µM) | MIC Staphylococcus aureus (GC 1131) (Staphylococcus sp.; 5×10^5 CFU/mL): 2 µg/mL (≈ 1.41 µM) | MIC Staphylococcus aureus (GC 3051) (Staphylococcus sp.; 5×10^5 CFU/mL): 2 µg/mL (≈ 1.41 µM) | MIC Staphylococcus aureus (GC 3053) (Staphylococcus sp.; 5×10^5 CFU/mL): 2 µg/mL (≈ 1.41 µM) | MIC Staphylococcus aureus (GC 4541) (Staphylococcus sp.; 5×10^5 CFU/mL): 2 µg/mL (≈ 1.41 µM) | MIC Staphylococcus aureus (GC 4542) (Staphylococcus sp.; 5×10^5 CFU/mL): 2 µg/mL (≈ 1.41 µM) | MIC Staphylococcus aureus (GC 4544) (Staphylococcus sp.; 5×10^5 CFU/mL): 2 µg/mL (≈ 1.41 µM) | MIC Staphylococcus aureus (GC 4545) (Staphylococcus sp.; 5×10^5 CFU/mL): 2 µg/mL (≈ 1.41 µM) | MIC Staphylococcus aureus-SMITH (GC 4543) (Staphylococcus sp.; 5×10^5 CFU/mL): 1 µg/mL (≈ 0.705 µM) | MIC Staphylococcus haemolyticus (GC 4546) (Staphylococcus sp.; 5×10^5 CFU/mL): 2 µg/mL (≈ 1.41 µM) | MIC Staphylococcus aureus (ATCC 29213) (Staphylococcus sp.; strain ATCC 29213): 2 µg/mL (≈ 1.41 µM) | MIC Staphylococcus aureus (GC 1131) (Staphylococcus sp.; strain GC 1131): 2 µg/mL (≈ 1.41 µM) | MIC Staphylococcus aureus (GC 3051) (Staphylococcus sp.; strain GC 3051): 2 µg/mL (≈ 1.41 µM) | MIC Staphylococcus aureus (GC 3053) (Staphylococcus sp.; strain GC 3053): 2 µg/mL (≈ 1.41 µM) | MIC Staphylococcus aureus (GC 4541) (Staphylococcus sp.; strain GC 4541): 2 µg/mL (≈ 1.41 µM) | MIC Staphylococcus aureus (GC 4542) (Staphylococcus sp.; strain GC 4542): 2 µg/mL (≈ 1.41 µM) | MIC Staphylococcus aureus-SMITH (GC 4543) (Staphylococcus sp.; strain GC 4543): 1 µg/mL (≈ 0.705 µM) | MIC Staphylococcus aureus (GC 4544) (Staphylococcus sp.; strain GC 4544): 2 µg/mL (≈ 1.41 µM) | MIC Staphylococcus aureus (GC 4545) (Staphylococcus sp.; strain GC 4545): 2 µg/mL (≈ 1.41 µM) | MIC Staphylococcus haemolyticus (GC 4546) (Staphylococcus sp.; strain GC 4546): 2 µg/mL (≈ 1.41 µM) | MIC Coagulase Negative Staphylococcus (GC 4547) (Staphylococcus sp.; strain GC 4547): 4 µg/mL (≈ 2.82 µM) | MIC Coagulase Negative Staphylococcus (GC 4548) (Staphylococcus sp.; strain GC 4548): 1 µg/mL (≈ 0.705 µM) | MIC Coagulase Negative Staphylococcus (GC 4549) (Staphylococcus sp.; strain GC 4549): 1 µg/mL (≈ 0.705 µM) | MIC Coagulase Negative Staphylococcus (GC 4551) (Staphylococcus sp.; strain GC 4551): 2 µg/mL (≈ 1.41 µM) | MIC Coagulase Negative Staphylococcus (GC 6257) (Staphylococcus sp.; strain GC 6257): 2 µg/mL (≈ 1.41 µM)
